Reference: PMC9655119, “Sustained Activation of CLR/RAMP Receptors by Gel-Forming Agonists” (International Journal of Molecular Sciences, 2022)
Read-outs that look alike come from different tables or passages of the source.

Assays:
Format in all cases: cell-based
[1] = test system: primary human lymphatic microvascular endothelial (HLME) cells; test: HLME cell proliferation (MTT assay); settings: 30, 100, 300 nmoles/L, medium with 2% FBS, 72 h, quintuplicate samples
Protocol: (§1) Primary human lymphatic microvascular endothelial cells (HLME cells; Cell Applications, Inc., San Diego, CA, USA) were maintained in a microvascular endothelial cell growth medium supplemented with 10% fetal bovine serum (FBS). […] After 72-h incubation, cell viability was determined with the 3-(4,5-dimethylthiazol-2-yl)-2,5-diphenyltetrazolium bromide (MTT) assay (Promega). To evaluate the effects on endothelial cell survival, HLME cells were treated with different concentrations of the agonist or controls (30, 100, and 300 nmoles/L) and cultured in a basal medium with 0.1% FBS for 72 h. Cell viability was then assayed with the MTT assay.

human CLR/RAMP1 = target: T1, human CLR/RAMP1 (Homo sapiens, UniProt O60894+Q16602); test: CLR/RAMP1 receptor-activation assay (DiscoverX cAMP Hunter, HitHunter cAMP XS+); settings: for Emax: read-out: CLR/RAMP1 Max Activity
T1 construct: host or cells: 1321N1 cells (cAMP Hunter cell line)
Protocol: (§2) The bioactivity of peptide analogs was studied using CLR/RAMP1, CLR/RAMP2, and CLR/RAMP3 assays by DiscoveRx (Fremont, CA, USA) in cells that stably express human CLR/RAMP1 (1321N1 cells), CLR/RAMP2 (CHO-K1 cells), or CLR/RAMP3 (CHO-K1 cells). The dose-dependent stimulatory effect of agonists was studied in duplicate, at 10 different concentrations. Determination of the half-maximal effective concentration (EC50) was performed using a 10-point dose-response curves. The starting concentration was 1.0 μM, and it was serially diluted 3-fold, in DMSO.
Cells were seeded in a total volume of 20 μL into 384-well microplates, and the activity was determined using the DiscoverX HitHunter cAMP XS + assay. Before the assay, media was aspirated from cells and replaced with 15 μL 2:1 HBSS/10 mM Hepes: cAMP XS + Ab reagent. Intermediate dilution of samples was performed to generate 4X sample in assay buffer, and 5 μL of the 4X sample was added to cells and incubated at 37°C. Vehicle concentration was 1%.
The chemiluminescent signal was read with a PerkinElmer instrument.

[2] = test system: primary human lymphatic microvascular endothelial (HLME) cells; test: HLME cell survival (MTT assay); settings: 30, 100, 300 nmoles/L, medium with 0.1% FBS, 72 h, quintuplicate samples
Protocol: as §1

human CLR/RAMP2 = target: T2, human CLR/RAMP2 (Homo sapiens, UniProt O60895+Q16602); test: CLR/RAMP2 receptor-activation assay (PathHunter β-Arrestin); settings: […], read-out: CLR/RAMP2 Max Activity
T2 construct: host or cells: CHO-K1 cells (PathHunter β-Arrestin cell line)
Protocol: as §2
In this assay, the CLR was fused in frame with a small enzyme donor fragment ProLink™ (PK). The receptor was co-expressed with a fusion protein of β-arrestin and an N-terminal deletion mutant of β-galactosidase (i.e., enzyme acceptor). Activation of the CLR/RAMP2 receptor stimulated the binding of β-arrestin to the PK-tagged receptor and led to an increase in enzyme activities which can then be measured with the PathHunter detection reagents. PathHunter cell lines were seeded in a total volume of 20 μL into 384-well microplates and incubated at 37 °C prior to the assay. Intermediate dilution of samples was performed to generate 5X samples in the assay buffer. A 5 μL aliquot of 5X sample was added to cells and incubated at 37 °C for 90 min. Vehicle concentration was 1%.

[3] = percentage of positive control β-CGRP

T1 sequence (Q16602 23-461): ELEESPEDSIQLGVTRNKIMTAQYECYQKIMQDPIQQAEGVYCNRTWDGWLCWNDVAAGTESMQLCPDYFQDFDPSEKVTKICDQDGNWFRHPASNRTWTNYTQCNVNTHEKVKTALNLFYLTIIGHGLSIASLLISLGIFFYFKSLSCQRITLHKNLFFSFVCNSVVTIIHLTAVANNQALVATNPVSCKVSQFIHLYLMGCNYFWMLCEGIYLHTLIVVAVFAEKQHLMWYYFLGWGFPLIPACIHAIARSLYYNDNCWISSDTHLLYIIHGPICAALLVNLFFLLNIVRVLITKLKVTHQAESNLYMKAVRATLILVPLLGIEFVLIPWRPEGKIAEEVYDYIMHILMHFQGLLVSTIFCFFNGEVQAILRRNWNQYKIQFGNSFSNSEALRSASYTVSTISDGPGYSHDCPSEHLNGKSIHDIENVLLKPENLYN
T1 sequence (O60894 27-148): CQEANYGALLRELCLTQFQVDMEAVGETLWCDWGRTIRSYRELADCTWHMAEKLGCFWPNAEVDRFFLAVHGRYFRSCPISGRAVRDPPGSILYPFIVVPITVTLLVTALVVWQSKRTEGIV
T2 sequence (Q16602 23-461): as the sequence (Q16602 23-461) above
T2 sequence (O60895 43-175): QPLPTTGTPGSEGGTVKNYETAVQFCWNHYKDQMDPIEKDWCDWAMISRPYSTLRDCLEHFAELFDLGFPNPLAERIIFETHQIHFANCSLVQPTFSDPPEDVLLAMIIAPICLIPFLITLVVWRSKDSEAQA

| Emax (human CLR/RAMP1; [3]) [%] | Emax (human CLR/RAMP2; percentage of positive control ADM1-52) [%] | EC50 (human CLR/RAMP1; 1321N1 cells stably expressing human CLR/RAMP1, cAMP read-out, 10-point dose-response in duplicate, start 1.0 μM, 3-fold serial dilution in DMSO) [µM] | Compound | effect on HLME cell proliferation [1] | effect on HLME cell survival [2] | Emax (human CLR/RAMP2) [%] | Emax (human CLR/RAMP1) [%] |
| --- | --- | --- | --- | --- | --- | --- | --- |
| 63 | – | – | CC[C@H](C)[C@H](NC(=O)[C@H](CCC(N)=O)NC(=O)[C@H](Cc1c[nH]cn1)NC(=O)[C@H](C)NC(=O)[C@H](CC(C)C)NC(=O)[C@H](CCCCN)NC(=O)[C@H](CCC(N)=O)NC(=O)[C@@H](NC(=O)[C@@H](NC(=O)[C@@H]1CSSC[C@H](NC(=O)CNC(=O)[C@H](Cc2ccccc2)NC(=O)[C@H](CO)NC(=O)[C@H](CCCNC(=N)N)NC(=O)[C@H](CC(C)C)NC(=O)CNC(=O)[C@H](CCC(N)=O)NC(=O)[C@H](Cc2ccccc2)NC(=O)[C@H](CC(N)=O)NC(=O)[C@H](CC(N)=O)NC(=O)[C@H](CCSC)NC(=O)[C@H](CO)NC(=O)[C@H](CCC(N)=O)NC(=O)[C@H](CCCNC(=N)N)NC(=O)[C@@H](N)Cc2ccc(O)cc2)C(=O)N[C@@H](CCCNC(=N)N)C(=O)N[C@@H](Cc2ccccc2)C(=O)NCC(=O)N[C@@H]([C@@H](C)O)C(=O)N1)[C@@H](C)O)C(C)C)C(=O)N[C@@H](Cc1ccc(O)cc1)C(=O)N[C@@H](CCC(N)=O)C(=O)N[C@@H](Cc1ccccc1)C(=O)N[C@H](C(=O)N[C@@H](CC(=O)O)C(=O)N[C@@H](CCCCN)C(=O)N[C@@H](CC(=O)O)C(=O)N[C@@H](CCCCN)C(=O)N[C@@H](CC(=O)O)C(=O)N[C@@H](CC(N)=O)C(=O)N[C@H](C(=O)N[C@@H](C)C(=O)N1CCC[C@H]1C(=O)N[C@@H](CCCNC(=N)N)C(=O)N[C@@H](CO)C(=O)N[C@@H](CCCCN)C(=O)N[C@H](C(=O)N[C@@H](CO)C(=O)N1CCC[C@H]1C(=O)N[C@@H](CCC(N)=O)C(=O)NCC(=O)N[C@@H](Cc1ccc(O)cc1)C(N)=O)[C@@H](C)CC)C(C)C)[C@@H](C)O [ADM1-52] | minimal effects | minimal effects | – | – |
| 69 | 102 | > 0.1 | CC[C@H](C)[C@H](NC(=O)[C@H](CCC(N)=O)NC(=O)[C@H](Cc1c[nH]cn1)NC(=O)[C@H](C)NC(=O)[C@H](CC(C)C)NC(=O)[C@H](CCCCN)NC(=O)[C@H](CCC(N)=O)NC(=O)[C@@H](NC(=O)[C@@H](NC(=O)[C@@H]1CSSC[C@H](NC(=O)CNC(=O)[C@@H](N)Cc2ccccc2)C(=O)N[C@@H](CCCNC(=N)N)C(=O)N[C@@H](Cc2ccccc2)C(=O)NCC(=O)N[C@@H]([C@@H](C)O)C(=O)N1)[C@@H](C)O)C(C)C)C(=O)N[C@@H](Cc1ccc(O)cc1)C(=O)N[C@@H](CCC(N)=O)C(=O)N[C@@H](Cc1ccccc1)C(=O)N[C@H](C(=O)N[C@@H](CC(=O)O)C(=O)N[C@@H](CCCCN)C(=O)N[C@@H](CC(=O)O)C(=O)N[C@@H](CCCCN)C(=O)N[C@@H](CC(=O)O)C(=O)N[C@@H](CC(N)=O)C(=O)N[C@H](C(=O)N[C@@H](C)C(=O)N1CCC[C@H]1C(=O)N[C@@H](CCCNC(=N)N)C(=O)N[C@@H](CO)C(=O)N[C@@H](CCCCN)C(=O)N[C@H](C(=O)N[C@@H](CO)C(=O)N1CCC[C@H]1C(=O)N[C@@H](CCC(N)=O)C(=O)NCC(=O)N[C@@H](Cc1ccc(O)cc1)C(N)=O)[C@@H](C)CC)C(C)C)[C@@H](C)O [ADM14-52, reference compound] | minimal effects | minimal effects | – | – |
| – | – | – | CC[C@H](C)[C@H](NC(=O)[C@H](CCC(N)=O)NC(=O)[C@H](Cc1c[nH]cn1)NC(=O)[C@H](C)NC(=O)[C@H](CC(C)C)NC(=O)[C@H](CCCCN)NC(=O)[C@H](CCC(N)=O)NC(=O)[C@@H](NC(=O)[C@@H](NC(=O)[C@@H]1CSSC[C@H](NC(=O)CNC(=O)[C@H](CCCCN)NC(C)=O)C(=O)N[C@@H](CCCNC(=N)N)C(=O)N[C@@H](Cc2ccccc2)C(=O)NCC(=O)N[C@@H]([C@@H](C)O)C(=O)N1)[C@@H](C)O)C(C)C)C(=O)N[C@@H](Cc1ccc(O)cc1)C(=O)N[C@@H](CCC(N)=O)C(=O)N[C@@H](Cc1ccccc1)C(=O)N[C@H](C(=O)N[C@@H](CC(=O)O)C(=O)N[C@@H](CCCCN)C(=O)N[C@@H](CC(=O)O)C(=O)N[C@@H](CCCCN)C(=O)N[C@@H](CC(=O)O)C(=O)N[C@@H](CC(N)=O)C(=O)N[C@@H](CO)C(=O)N[C@@H](C)C(=O)N1CCC[C@H]1C(=O)N[C@H](C(=O)N[C@@H](CC(=O)O)C(=O)N1CCC[C@H]1C(=O)N[C@@H](CO)C(=O)N[C@@H](CO)C(=O)N1CCC[C@H]1C(=O)N[C@@H](Cc1c[nH]cn1)C(=O)N[C@@H](CO)C(=O)N[C@@H](Cc1ccc(O)cc1)C(N)=O)C(C)C)[C@@H](C)O [Analog B-6] | – | minimal effects | – | – |
| – | – | – | CCCCCCCCCCCCCCCC(=O)NCCCC[C@H](NC(=O)COCCOCCN)C(=O)NCC(=O)N[C@H]1CSSC[C@@H](C(=O)N[C@H](C(=O)N[C@H](C(=O)N[C@@H](CCC(N)=O)C(=O)N[C@@H](CCCCN)C(=O)N[C@@H](CC(C)C)C(=O)N[C@@H](C)C(=O)N[C@@H](Cc2c[nH]cn2)C(=O)N[C@@H](CCC(N)=O)C(=O)N[C@H](C(=O)N[C@@H](Cc2ccc(O)cc2)C(=O)N[C@@H](CCC(N)=O)C(=O)N[C@@H](Cc2ccccc2)C(=O)N[C@H](C(=O)N[C@@H](CC(=O)O)C(=O)N[C@@H](CCCCN)C(=O)N[C@@H](CC(=O)O)C(=O)N[C@@H](CCCCN)C(=O)N[C@@H](CC(=O)O)C(=O)N[C@@H](CC(N)=O)C(=O)N[C@H](C(=O)N[C@@H](CC(=O)O)C(=O)N2CCC[C@H]2C(=O)N[C@@H](CO)C(=O)N[C@@H](CO)C(=O)N2CCC[C@H]2C(=O)N[C@@H](Cc2c[nH]cn2)C(=O)N[C@@H](CO)C(=O)N[C@@H](Cc2ccc(O)cc2)C(N)=O)C(C)C)[C@@H](C)O)[C@@H](C)CC)C(C)C)[C@@H](C)O)NC(=O)[C@H]([C@@H](C)O)NC(=O)CNC(=O)[C@H](Cc2ccccc2)NC(=O)[C@H](CCCNC(=N)N)NC1=O [Analog D-4] | – | – | 82 | 67 |
| – | – | – | CCCCCCCCCCCCCCCC(=O)NCCCC[C@H](NC(=O)COCCOCCN)C(=O)NCC(=O)N[C@H]1CSSC[C@@H](C(=O)N[C@H](C(=O)N[C@H](C(=O)N[C@@H](CCC(N)=O)C(=O)N[C@@H](CCCCN)C(=O)N[C@@H](CC(C)C)C(=O)N[C@@H](C)C(=O)N[C@@H](Cc2c[nH]cn2)C(=O)N[C@@H](CCC(N)=O)C(=O)N[C@H](C(=O)N[C@@H](Cc2ccc(O)cc2)C(=O)N[C@@H](CCC(N)=O)C(=O)N[C@@H](Cc2ccccc2)C(=O)N[C@H](C(=O)N[C@@H](CC(=O)O)C(=O)N[C@@H](CCCCN)C(=O)N[C@@H](CC(=O)O)C(=O)N[C@H](C(=O)N[C@@H](C)C(=O)N2CCC[C@H]2C(=O)N[C@@H](CCCNC(=N)N)C(=O)N[C@@H](CO)C(=O)N[C@@H](CCCCN)C(=O)N[C@H](C(=O)N[C@@H](CO)C(=O)N2CCC[C@H]2C(=O)N[C@@H](CCC(N)=O)C(=O)NCC(=O)N[C@@H](Cc2ccc(O)cc2)C(N)=O)[C@@H](C)CC)C(C)C)[C@@H](C)O)[C@@H](C)CC)C(C)C)[C@@H](C)O)NC(=O)[C@H]([C@@H](C)O)NC(=O)CNC(=O)[C@H](Cc2ccccc2)NC(=O)[C@H](CCCNC(=N)N)NC1=O [Analog D-6] | – | – | 74 | 56 |
